From patent US20250270199A1, “THIAZOLE DERIVATIVES AND METHODS OF USING THE SAME” (Arkansas State University - Jonesboro, priority 2022, published 2025)
Converted amounts (≈) assume the structure as drawn. “And” between values parts separate entries of the source, which are not always exact repeats. Equal values may be shown once. Read-outs that look alike come from different tables or passages of the source.

Legend:
[1] = tested on: S. aureus LAC MRSA (Sa LAC); assay: MIC, broth microdilution, Sa LAC; assay type: cell-based; settings: Staphylococcus aureus, read-out: Minimum inhibitory concentration (MIC) Sa LAC
Procedure: (§1) The broth microdilution method was utilized to determine MIC values of novel thiazole derivatives against different clinically important Gram-positive bacteria according to the guidelines outlined by the Clinical and Laboratory Standards Institute (CLSI) as reported in our recent papers.^1-5 The starting concentration of compounds for MIC determination was 64 μg/mL serially diluted down the wells and the MIC values were recorded in duplicates in three independent experiments on different days.

[2] = tested on: S. aureus ATCC BAA-2312 (Sa 12); assay: MIC, broth microdilution, Sa 12; assay type: cell-based; settings: Staphylococcus aureus
Procedure: as §1

[3] = tested on: E. faecalis ATCC 29212 (Efs 12); assay: MIC, broth microdilution, Efs 12; assay type: cell-based; settings: for MIC: Enterococcus faecalis; for Minimum inhibitory concentration (MIC) Efs 12: Table 1, HT series
Procedure: as §1

[4] = tested on: S. aureus ATCC 33592 (Sa 92); assay: MIC, broth microdilution, Sa 92; assay type: cell-based; settings: Staphylococcus aureus
Procedure: as §1

[5] = tested on: S. aureus subsp. aureus Rosenbach ATCC 25904 (SA Newman); assay: MIC, broth microdilution, SA Newman; assay type: cell-based; settings: for MIC: Staphylococcus aureus, read-out: Minimum inhibitory concentration (MIC) Sa Newman
Procedure: as §1

[6] = tested on: Sa UAMS-1 MRSA ATCC 49230 (Sa UAMS); assay: MIC, broth microdilution, Sa UAMS; assay type: cell-based, S. aureus; settings: Staphylococcus aureus
Procedure: as §1

[7] = tested on: S. aureus ATCC 700699 (Sa 99); assay: MIC, broth microdilution, Sa 99; assay type: cell-based; settings: for MIC: Staphylococcus aureus; for Minimum inhibitory concentration (MIC) Sa 99: Table 1, HT series
Procedure: as §1

[8] = tested on: S. aureus ATCC 25923 (Sa 23); assay: MIC, broth microdilution, Sa 23; assay type: cell-based; settings: for MIC: Staphylococcus aureus
Procedure: as §1

[9] = tested on: S. aureus ATCC 33591 (Sa 91); assay: MIC, broth microdilution, Sa 91; assay type: cell-based; settings: for MIC: Staphylococcus aureus
Procedure: as §1

[10] = tested on: S. aureus subsp. aureus Rosenbach BAA-1717 (Sa USA 300); assay: MIC, broth microdilution, Sa USA 300; assay type: cell-based; settings: Staphylococcus aureus, read-out: Minimum inhibitory concentration (MIC) Sa USA 300
Procedure: as §1

[11] = tested on: S. epidermidis ATCC 700296 (Se); assay: MIC, broth microdilution, Se; assay type: cell-based; settings: Staphylococcus epidermidis, ATCC700296, read-out: Minimum inhibitory concentration (MIC) Se
Procedure: as §1

[12] = ATCCBAA2312, Table 1, HT series, read-out: Minimum inhibitory concentration (MIC) Sa 12
[13] = ATCC29212, Table 1, HT series, replicates from different days separated by comma, read-out: Minimum inhibitory concentration (MIC) Efs 12
[14] = replicates from different days separated by comma
[15] = ATCC33592, Table 1, HT series, read-out: Minimum inhibitory concentration (MIC) Sa 92
[16] = Table 1, HT series, read-out: Minimum inhibitory concentration (MIC) Sa UAMS
[17] = ATCC700699, Table 1, HT series, replicates from different days separated by comma, read-out: Minimum inhibitory concentration (MIC) Sa 99
[18] = ATCC25923, Table 1, HT series, replicates from different days separated by comma, read-out: Minimum inhibitory concentration (MIC) Sa 23
[19] = Table 1, HT series, replicates from different days separated by comma
[20] = ATCC33591, Table 1, HT series, read-out: Minimum inhibitory concentration (MIC) Sa 91

Row | MIC ([1]; Table 1, HT series) [µg/mL] | MIC [2, 12] [µg/mL] | MIC [3, 13] [µg/mL] | Minimum inhibitory concentration (MIC) Efs 12 [3, 14] | MIC [4, 15] [µg/mL] | MIC ([5]; Table 1, HT series) [µg/mL] | MIC [6, 16] [µg/mL] | MIC [7, 17] [µg/mL] | Minimum inhibitory concentration (MIC) Sa 99 [7, 14] | MIC [8, 18] [µg/mL] | Minimum inhibitory concentration (MIC) Sa 23 [8, 19] | MIC [9, 20] [µg/mL] | Compound | other results
1 | 8 (≈ 26.3 µM) | 8 (≈ 26.3 µM) | 16 (≈ 52.7 µM) | 8 µg/mL and 16 µg/mL | 8 (≈ 26.3 µM) | 4 (≈ 13.2 µM) | 8 (≈ 26.3 µM) | 4 (≈ 13.2 µM) | 4, 4, 4 μg/mL | 2 (≈ 6.58 µM) | 2, 2, 2 μg/mL | 4 (≈ 13.2 µM) | Oc1ccc(-c2nc(-c3cccc(Cl)c3)cs2)cc1O [Compound 3, 4-(4-(3-chlorophenyl)thiazol-2-yl)benzene-1,2-diol] | –
2 | 16 (≈ 55.7 µM) | 16 (≈ 55.7 µM) | 32 (≈ 111 µM) | 32, 32, 32 μg/mL | 16 (≈ 55.7 µM) | 8 (≈ 27.8 µM) | 16 (≈ 55.7 µM) | – | 16 μg/mL (2×) and 4 μg/mL | 4 (≈ 13.9 µM) | 8 µg/mL (≈ 27.8 µM) | 8 (≈ 27.8 µM) | Oc1ccc(-c2nc(-c3ccc(F)cc3)cs2)cc1O [Compound 4, 4-(4-(4-fluorophenyl)thiazol-2-yl)benzene-1,2-diol] | –
3 | – | – | – | – | – | – | – | – | – | – | – | – | CN[C@H](CC(C)C)C(=O)N[C@H]1C(=O)N[C@@H](CC(N)=O)C(=O)N[C@H]2C(=O)N[C@H]3C(=O)N[C@H](C(=O)N[C@H](C(=O)O)c4cc(O)cc(O)c4-c4cc3ccc4O)[C@H](O)c3ccc(c(Cl)c3)Oc3cc2cc(c3O[C@@H]2O[C@H](CO)[C@@H](O)[C@H](O)[C@H]2O[C@H]2C[C@](C)(N)[C@H](O)[C@H](C)O2)Oc2ccc(cc2Cl)[C@H]1O [Vanc., Vancomycin, reference compound] | MIC [1]: 1 µg/mL (≈ 0.69 µM); MIC ([2]; ATCCBAA2312, read-out: Minimum inhibitory concentration (MIC) Sa 12, Table 1, HT series): 1 µg/mL (≈ 0.69 µM); MIC ([2]; ATCCBAA2312, read-out: Minimum inhibitory concentration (MIC) Sa 12, Table 2, HTM series): 0.5 µg/mL (≈ 0.345 µM); MIC ([3]; ATCC29212, read-out: Minimum inhibitory concentration (MIC) Efs 12, Table 1, HT series, replicates from different days separated by comma): 2 µg/mL (≈ 1.38 µM); MIC ([3]; ATCC29212, read-out: Minimum inhibitory concentration (MIC) Efs 12, Table 2, HTM series): 4 µg/mL (≈ 2.76 µM); MIC ([4]; ATCC33592, read-out: Minimum inhibitory concentration (MIC) Sa 92, Table 1, HT series): 1 µg/mL (≈ 0.69 µM); MIC ([4]; ATCC33592, read-out: Minimum inhibitory concentration (MIC) Sa 92, Table 2, HTM series): 2 µg/mL (≈ 1.38 µM); MIC [5]: 2 µg/mL (≈ 1.38 µM); Minimum inhibitory concentration (MIC) Sa Newman ([5]; Table 2, HTM series): 2 µg/mL (≈ 1.38 µM); MIC ([6]; read-out: Minimum inhibitory concentration (MIC) Sa UAMS): 2 µg/mL (≈ 1.38 µM); MIC ([6]; read-out: Minimum inhibitory concentration (MIC) Sa UAMS-1): 1 µg/mL (≈ 0.69 µM); MIC ([7]; ATCC700699, read-out: Minimum inhibitory concentration (MIC) Sa 99, Table 1, HT series, replicates from different days separated by comma): 2 µg/mL (≈ 1.38 µM); MIC ([7]; ATCC700699, read-out: Minimum inhibitory concentration (MIC) Sa 99, Table 2, HTM series): 4 µg/mL (≈ 2.76 µM); MIC ([8]; ATCC25923, read-out: Minimum inhibitory concentration (MIC) Sa 23): 1 µg/mL (≈ 0.69 µM); Minimum inhibitory concentration (MIC) Sa 23 ([8]; Table 2, HTM series): 1 µg/mL (≈ 0.69 µM); MIC [10]: 1 µg/mL (≈ 0.69 µM); MIC [11]: 2 µg/mL (≈ 1.38 µM); MIC ([9]; ATCC33591, read-out: Minimum inhibitory concentration (MIC) Sa 91): 2 µg/mL (≈ 1.38 µM); Minimum inhibitory concentration (MIC) Sa 91 ([9]; Table 2, HTM series): 2 µg/mL (≈ 1.38 µM)
4 | 32 (≈ 119 µM) | 32 (≈ 119 µM) | > 32 | >32, >32, >32 μg/mL | 16 (≈ 59.4 µM) | 32 (≈ 119 µM) | 32 (≈ 119 µM) | 32 (≈ 119 µM) | 16 µg/mL (≈ 59.4 µM) | 8 (≈ 29.7 µM) | 16 µg/mL (≈ 59.4 µM) | 16 (≈ 59.4 µM) | Oc1ccc(-c2nc(-c3ccccc3)cs2)cc1O [Compound 2, 4-(4-phenylthiazol-2-yl)benzene-1,2-diol] | –
